Source: US20260115202A1, “TOPICAL COMPOSITIONS COMPRISING AN ESTETROL COMPONENT AND USE OF SAID COMPOSITIONS FOR WOUND HEALING” (NEURALIS SA, priority 2022, published 2026)

How the values were obtained:
[1] = system: Female wild-type (C57BL/6J) 8 weeks old mice; test: In vivo LPS-induced delayed wound healing model: uterine weight and morphology; conditions: topical, 60 μl on days -1 to 4, LPS mice, assessed at day 5
Text: (§1) The in vivo LPS-induced delayed wound healing model was reproduced as previously described (Crompton R, Williams H, Ansell D, Campbell L, Holden K, Cruickshank S, Hardman M J. Oestrogen promotes healing in a bacterial LPS model of delayed cutaneous wound repair. Lab Invest. 2016 April, 96 (4): 439-49).
(§2) Female wild-type (C57BL/6J) 8 weeks old mice were split into six groups (6 animals per experimental group): • Double placebo control (no LPS, placebo treatment), • LPS control (LPS, placebo treatment), • LPS with topical EstroGel (estradiol gel, contains 0.06% 17β-estradiol as hemihydrate in a hydro-alcoholic gel), • LPS with topical AG24 (E4 at 0.5%), • LPS with topical AG25 (E4 at 0.22%), • LPS with topical AG26 (E4 at 0.06%).
(§3) The day prior to wounding (day −1), all the animals were weighed and anaesthetised using oxygen and isoflurane (flow rate 1.25-2 L with 2-2.5% isoflurane depending on clinical signs). Animals were shaved and dorsal areas prepped. Wound positions (2 wounds) were marked on the dorsum of each animal. Animals received a first subcutaneous injection of 2 μg K. pneumoniae-derived LPS diluted in DPBS (1 μg per wound: Sigma Aldrich, UK: L4268) at the wound site, except the double placebo group that received DPBS only. A thin layer of EstroGel, AG24, AG25, AG26 or placebo were then applied to the dorsum of each animal, measured as 60 μl total (30 μl/wound). […]

[2] = system: LPS-induced delayed wound healing mice model; test: In vivo LPS-induced delayed wound healing model: wound histology and immunohistochemistry; conditions: versus LPS/PBO
Text: as §1, §2
as §3, with “μl/wound). Animals recovered in a warming cabinet and were then single housed in fresh cages containing alpha pad, RO water, food, mash and a house. On day 0 (24 hours after first anaesthesia), mice were re-anaesthetised and dorsal skin cleaned with chlorhexidine wipes. Two 6 mm dorsal excisions were created. 2 μg LPS (1 μg per wound) was subcutaneously injected at the wound site as above, except for the double placebo mice that were injected with DPBS.” for “μl/wound).”
These are expressed in the increase in uterus weight. Next, we evaluated wound closure from histological samples. […] The degree of re-epithelialisation was determined as the length of neo-epidermis divided by the distance between the wound margins, multiplied by 100.

MMP2 = test: Zymography of supernatants from human dermal fibroblasts; type: cell-based; conditions: HDFs from 3 independent donors, versus control
Description: In vitro cultured murine fibroblasts were treated with either E2, E4, DPN or PPT at 10^−7M. As previously reported. […] Next, zymography was performed on cell supernatants from HDFs treated with either E2 or E4, to evaluate the effect of E2 and E4 on cell-derived MMP activity. […] The magnitude of the effect (and statistical significance) was greater in cells treated with E4. No MMP9 activity was detected in any treatment group. Finally, we explored the effect of E2 and E4 on murine fibroblast expression of extracellular matrix genes, specifically collagen 1 (Colal) and fibronectin (Fn1) (FIG. 20).

THP1 cells = test: THP1 macrophage polarisation, qPCR of M1/M2 markers; type: cell-based, human; conditions: range of concentrations; for expression of Tnf-α (M1 marker): M1 polarised THP1 cells; for expression of CCL17 (M2 marker): M2 polarised THP1 cells
Description: THP1 cells were maintained in RPM1 growth medium supplemented with 10% heat-inactivated FBS and 1% penicillin/streptomycin. Cells were seeded into 12- or 6-well plates at 2×10^5 cells/ml and treated with phorbol 12-myristate 13-acetate (PMA) to induce differentiation to macrophages. Cells were cultured for 24 hours in complete growth medium without PMA, followed by a 6 hour serum starve prior to polarisation. Cells were polarised to M1 macrophages using 20 ng/ml IFN-γ and 10 pg/ml LPS (from E, coli) for 6 or 24 hours and collected for RNA isolation or flow cytometry. Following treatments, human and murine macrophages were collected in Trizol and RNA isolated using the Trizol plus RNA isolation kit (Invitrogen. Thermo Fisher) according to the manufacturer's instructions. RNA was reverse transcribed to cDNA using GoScript reverse transcriptase (Promega). Quantitative real-time PCR was carried out using 2×Takyon SYBR Green mastermix and a CFX Connect thermocycler. Primers for ERα and ERβ were used to explore changes in ER expression after treatment of MEK and MDF with E2 and E4. To investigate the effect of E2 and E4 on MEK differentiation and the expression of ECM proteins by MDF, primers for. Snail, keratin-1 and fibronectin, collagen I. MMP-2 and MMP-9 were used. Primers for INOS. IL-1B and Tnf-α or Ccl17 were used to assess M1/M2 polarisation status. Primers for GAPDH were used to normalise data. Relative gene expression was set to vehicle controls or M0 expression unless otherwise stated. The relative anti-inflammatory effects of both E2 and E4 were evaluated in vitro. First, the human monocyte THP1 cell line was used to screen several concentrations of E2 and E4. THP1 cells were differentiated to a macrophage phenotype by treatment with PMA, followed by polarisation to an M1 or M2 phenotype (FIG. 23). Successful polarisation was confirmed by profiling the expression of the M1 marker (TNF-α) and the M2 marker (CCL17). The effects of co-treatment with a range of E2 or E4 concentrations were evaluated.

Structure (SMILES): C[C@]12CC[C@@H]3c4ccc(O)cc4CC[C@H]3[C@@H]1[C@@H](O)[C@@H](O)[C@@H]2O [Formulation E4, 1,3,5 (10)-estratrien-3,15alpha, 16alpha, 17beta-tetrol]
- uterine weight and morphology [1]: affects uterine weight in a dose-dependent manner
- wound re-epithelialisation ([2]; day 5, K14 immunohistochemistry): promotes re-epithelialization
- wound macrophage numbers ([2]; day 5, immunohistochemistry): reduced numbers of wound macrophages
- wound neutrophil numbers ([2]; day 5, immunohistochemistry): reduced numbers of wound neutrophils
- MMP2 activity in cell supernatants (MMP2): significantly reduced MMP2 activity versus control
- expression of Tnf-α (M1 marker) (THP1 cells): strong trend towards reduced expression of Tnf-α in M1 polarised cells
- expression of CCL17 (M2 marker) (THP1 cells): increased expression of CCL 17 in M2 polarised cells

Structure (SMILES): C[C@]12CC[C@@H]3c4ccc(O)cc4CC[C@H]3[C@@H]1CC[C@@H]2O [Formulation E2, 17β-estradiol, reference compound]
- MMP2 activity in cell supernatants (MMP2): significantly reduced MMP2 activity versus control
- expression of Tnf-α (M1 marker) (THP1 cells): strong trend towards reduced expression of Tnf-α in M1 polarised cells
- expression of CCL17 (M2 marker) (THP1 cells): increased expression of CCL 17 in M2 polarised cells
